Results: patent publication US20080161378A1, “Novel Therapeutic Agent For Amyotrophic Lateral Sclerosis (Als) or Diseases Caused by Als” (priority 2004, published 2008)

Legend:
ALS = settings: Non-Patent Documents 1-5; cited from earlier work
patients of ALS [1] = experiment: Efficacy evaluation 6 months after administration based on ALSFRS-R (cumulative differences); type: in vivo, human; settings: for Suppression rate (rate of "suppressed") in accordance with ALSFRS-R / Assessment based on cumulative differences in accordance with ALSFRS-R: Suppressed (number of cases): i.v. once daily; for Suppression rate (rate of "suppressed") in accordance with ALSFRS-R: 6 administration periods; for Assessment based on cumulative differences in accordance with ALSFRS-R: Suppressed (number of cases): 6 administration periods with drug holidays, suppressed = ratio between cumulative differences 50% or less; for Assessment based on cumulative differences in accordance with ALSFRS-R: No change (number of cases): no change = ratio 100% or more; for Assessment based on cumulative differences in accordance with ALSFRS-R: Slightly suppressed (number of cases): slightly suppressed = ratio more than 50% and less than 100%
Protocol: 1 ampule of “Radicut injection 30 mg” (containing 30 mg of edaravone, produced and marketed by Mitsubishi Pharma Corporation) was intravenously administered once daily to 5 patients of ALS. Single daily administration of the medicament took 30 minutes, and the administration was carried out for 14 consecutive days (the 1st administration period). […] Thereafter, intravenous administration of the medicament was carried out for 10 days (with no administration on Saturdays, Sundays, and national holidays) in the manner described above (the 2nd administration period). Then, treatments similar to those carried out in the 2nd administration period were repeated 4 times (the 3rd to 6th administration periods).
2 ampules of the aforementioned “Radicut injection 30 mg” were intravenously administered once daily to 14 patients of ALS. Single daily administration of the medicament took 60 minutes, and the administration was carried out for 14 consecutive days (the 1st administration period). […] Thereafter, the intravenous administration of the medicament was carried out for 10 days (with no administration on Saturdays, Sundays, and national holidays) in the manner described above (the 2nd administration period). Then, treatments similar to those carried out in the 2nd administration period were repeated 4 times (the 3rd to 6th administration periods).
In accordance with ALSFRS-R, the score at a time point “before the 1st administration period” (*) was determined to be a base point based on comparison of changes “before administration” and changes “during administration.” Then, patients were evaluated in the following manner.
• Difference at each time point before administration=(* before the 1st administration period)−(time point 1, 2 3, 4, 5 or 6 before administration) • Difference at each time point during administration=(time point i, ii, iii, iv, v, or vi before each administration period)−(* before the 1st administration period)
The sum of differences at time points before administration (defined as A)
A=(*−1)+(*−2)+(*−3)+(*−4)+(*−5)+(*−6)
The sum of differences at time points during administration (defined as B)
B=(i−*)+(ii−*)+(iii−*)+(iv−*)+(v−*)+(vi−*)
Averages of the sums of differences obtained in 2) were calculated so as to obtain cumulative differences. (The sums were divided by 6, based on 6 time points 1 to 6 before administration and 6 time points i to vi during administration).
Cumulative difference before administration=A/6
Cumulative difference during administration=B/6
Based on the averages obtained in 3), the ratio of cumulative difference before administration (A/6) to cumulative difference during administration (B/6) was expressed by the following formula:
(Formula)cumulative difference during administration/cumulative difference before administration×100.
Ratio between cumulative differences(%)=(B/6)/(A/6)×100.
Based on the “ratio between cumulative differences” obtained in 4), efficacy evaluation was made in accordance with the following criteria.

patients of ALS [2] = experiment: Efficacy evaluation 6 months after administration based on % FVC (percent predicted forced vital capacity); type: in vivo, human; settings: for average rate of decrease of % FVC: before 1st administration period vs end of 6th administration period
Protocol: The term “% FVC” stands for percent predicted forced vital capacity; it is generally used as an index in a method for objectively evaluating respiratory function in ALS patients (ALS treatment guidelines 2002). In addition, in the case of ALS patients (placebo group), the rate of decrease of % FVC for during 6 months is 13.8% (The BDNF Study Group (Phase III), Neurology, 52, 1427 (1999)).
1 ampule of the aforementioned “Radicut injection 30 mg” was intravenously administered once daily to 4 patients of ALS. Single daily administration of the medicament took 30 minutes, and it was carried out for 14 consecutive days (the 1st administration period). […] Thereafter, intravenous administration of the medicament was carried out for 10 days (with no administration on Saturdays, Sundays, and national holidays) in the manner described above (the 2nd administration period). Then, treatments similar to those carried out in the 2nd administration period were repeated 4 times (the 3rd to the 6th administration periods).
The % FVC for each patient was determined using a chestac-11 (Chest). The average rate of decrease of % FVC was 9.3% when comparing % FVC before the 1st drug administration period and that at the end of the 6th drug administration period.
2 ampules of “Radicut injection 30 mg” (each of which contained 30 mg of edaravone) were intravenously administered once daily to 12 patients of ALS. Single daily administration of the medicament took 60 minutes and it was carried out for 14 consecutive days (the 1st administration period). […] Thereafter, intravenous administration of the medicament was carried out for 10 days (with no administration on Saturdays, Sundays, and national holidays) in the manner described above (the 2nd administration period). […]
The % FVC for each patient was determined using a chestac-11 (Chest), as with the case of the 30 mg group. […] In addition, partial pressure of arterial carbon dioxide (PaCO2) was determined. The PaCO2 of each patient was determined using a blood gas analyzer (Bayer 850; Bayer Medical).

patients of ALS [3] = experiment: Partial pressure of arterial carbon dioxide (PaCO2), blood gas analyzer; type: in vivo, human
Protocol: 2 ampules of “Radicut injection 30 mg” (each of which contained 30 mg of edaravone) were intravenously administered once daily to 12 patients of ALS. Single daily administration of the medicament took 60 minutes and it was carried out for 14 consecutive days (the 1st administration period). […] Thereafter, intravenous administration of the medicament was carried out for 10 days (with no administration on Saturdays, Sundays, and national holidays) in the manner described above (the 2nd administration period). Then, treatments similar to those carried out in the 2nd administration period were repeated 4 times (the 3rd to the 6th administration periods).
The % FVC for each patient was determined using a chestac-11 (Chest), as with the case of the 30 mg group. The average rate of decrease of % FVC was 4.5% when comparing % FVC before the 1st drug administration period and that at the end of the 6th drug administration period. In addition, partial pressure of arterial carbon dioxide (PaCO2) was determined. The PaCO2 of each patient was determined using a blood gas analyzer (Bayer 850; Bayer Medical).

patients of ALS [4] = experiment: Safety evaluation 6 months after administration, clinical laboratory test; type: in vivo, human; settings: for BUN / CK / Creatinine / GOT / GPT / γ-GTP: average of patients of Example 2
Protocol: The patients of Example 2 were each subjected to a clinical laboratory test.
The following components were determined before and after drug administration using a large automated multichannel analyzer (automatic analyzer 7600-020s; Hitachi).

[5] = overall conclusion of Example 2
[6] = before administration (baseline)

CC(=O)N[C@@H](CS)C(=O)O [N-acetylcysteine]
prevention of decreased respiratory function in ALS (ALS): cannot prevent decreased respiratory function

CC1=NN(c2ccccc2)C(=O)C1 [Radicut injection 30 mg, 3-methyl-1-phenyl-2-pyrazolin-5-one]
Suppression rate (rate of "suppressed") in accordance with ALSFRS-R (patients of ALS [1]; 30 mg group (5 ALS patients)): 20% | Assessment based on cumulative differences in accordance with ALSFRS-R: Suppressed (number of cases) (patients of ALS [1]; 30 mg group (5 ALS patients)): 1 | Assessment based on cumulative differences in accordance with ALSFRS-R: No change (number of cases) (patients of ALS [1]; 30 mg group (5 ALS patients)): 1 | Assessment based on cumulative differences in accordance with ALSFRS-R: Slightly suppressed (number of cases) (patients of ALS [1]; 30 mg group (5 ALS patients)): 3 | Suppression rate (rate of "suppressed") in accordance with ALSFRS-R (patients of ALS [1]; 60 mg group (14 ALS patients)): 50% | Assessment based on cumulative differences in accordance with ALSFRS-R: Suppressed (number of cases) (patients of ALS [1]; 60 mg group (14 ALS patients)): 7 | Assessment based on cumulative differences in accordance with ALSFRS-R: No change (number of cases) (patients of ALS [1]; 60 mg group (14 ALS patients)): 6 | Assessment based on cumulative differences in accordance with ALSFRS-R: Slightly suppressed (number of cases) (patients of ALS [1]; 60 mg group (14 ALS patients)): 1 | average rate of decrease of % FVC (patients of ALS [2]; 30 mg group (4 ALS patients)): 9.3% | average rate of decrease of % FVC (patients of ALS [2]; 60 mg group (12 ALS patients)): 4.5% | decrease of % FVC in ALS patients (patients of ALS [2]; [5]): significantly suppressed | PaCO2 values before the 1st administration period and after the end of the 6th administration period (patients of ALS [3]; 60 mg group (12 ALS patients)): almost the same | increase of PaCO2 in ALS patients (patients of ALS [3]; [5]): significantly suppressed | BUN (patients of ALS [4]; after administration): 14.3 mg/dL | CK (patients of ALS [4]; after administration): 135.6 IU/L | Creatinine (patients of ALS [4]; after administration): 0.6 mg/dL | GOT (patients of ALS [4]; after administration): 19.1 IU/L | GPT (patients of ALS [4]; after administration): 19.6 IU/L | γ-GTP (patients of ALS [4]; after administration): 25.3 IU/L | BUN (patients of ALS [4]; [6]): 14.1 mg/dL | CK (patients of ALS [4]; [6]): 165.3 IU/L | Creatinine (patients of ALS [4]; [6]): 0.6 mg/dL | GOT (patients of ALS [4]; [6]): 21.3 IU/L | GPT (patients of ALS [4]; [6]): 22.2 IU/L | γ-GTP (patients of ALS [4]; [6]): 31.6 IU/L | clinical laboratory values after administration (safety) (patients of ALS [4]; patients of Example 2, 6 months after administration): did not increase to abnormal levels

NCC1(CC(=O)O)CCCCC1 [gabapentin]
prevention of decreased respiratory function in ALS (ALS): cannot prevent decreased respiratory function

RhIGF-1: medicament examined as potential medicament for treating ALS
prevention of decreased respiratory function in ALS (ALS): cannot prevent decreased respiratory function

B1: BDNF: medicament examined as potential medicament for treating ALS (protein, UniProt P23560 19-247, looked up)
Neurotrophic factor BDNF …: APMKEANIRGQGGLAYPGVRTHGTLESVNGPKAGSRGLTSLADTFEHVIEELLDEDQKVRPNEENNKDADLYTSRVMLSSQVPLEPPLLFLLEEYKNYLDAANMSMRVRRHSDPARRGELSVCDSISEWVTAADKKTAVDMSGGTVTVLEKVPVSKGQLKQYFYETKCNPMGYTKEGCRGIDKRHWNSQCRTTQSYVRALTMDSKKRIGWRFIRIDTSCVCTLTIKRGR
prevention of decreased respiratory function in ALS (ALS): cannot prevent decreased respiratory function
